# Key:
# HeLa cells = experiment: Permeability of free dye and probes in live cells (fluorescence imaging); format: cell-based, human; details: HeLa cells, DMSO/STS 1 μM 4 h, then probe 24 μM 1 h at 4 °C or 37 °C, one-photon imaging
# Procedure: Supplementary Figure 5. Detection of caspase activities in live mammalian cells. (a) One-photon images of AAN (5 μM)/probes (24 μM)/DMSO (blank) in live HeLa cells after 1-h incubation together with LysoTracker. (Panels 1-7) bright field; (Panels 8-14) λex = 405 nm, λem = 420-480 nm (indicative of probes, blue); (Panels 15-21) λex = 405 nm, λem = 470-500 nm (indicative of AAN, green); (Panels 22-28) LysoTracker (λex = 543 nm, λem = 560-615 nm, red); (Panels 29-35) merged images of blue/red channels. Scale bar: 20 μm. (b) Bioimaging of NIH/3T3 cells transfected with active caspase-1 (Panels 2/3/5/6; 50 ng)/caspase-3 (Panels 8/9; 15 ng)/caspase-8 (Panels 11/12; 5 ng) with/without inhibitor treatment (Panels 3/6/9/12, 50 μM of Z-VAD-FMK incubated for 1 h before probes were added) as well as control cells (Panels 1/4/7/10, no caspase transfection) by using C1RB (24 μM)/C1FS (12 μM) for caspase-1, C3RA (24 μM) for caspase-3 and C8RA (24 μM) for caspase-8. Cells were co-stained with membrane tracker. (Green) signals from caspase-cleaved probes (λex = 760 nm, λem = 480-550 nm for all probes, except for C1FS with λem = 450-550 nm). (Red) membrane tracker (λex = 650 nm, λem = 655-740 nm). (Inset) bright field. Scale bar = 10 μm. […]
# XTT assay. The cytotoxicity of our probes was determined by using the XTT colorimetric cell proliferation kit (Roche) following manufacturer’s guidelines. […]
# [1] = not given; remark: listed apart in the source
compound,measurement,setting,value
"CC(=O)N[C@@H](CC(=O)O)C(=O)N[C@@H](CCC(=O)O)C(=O)N[C@H](C(=O)N[C@@H](CC(=O)O)C(=O)Nc1ccc2cc(C(C)=O)ccc2c1)C(C)C [C3RA, Ac-DEVD-AAN]",endocytosis and endo/lysosomal trapping of the probe,HeLa cells,no obvious
same,δΦ (two-photon action cross-section),,2.9 GM
same,λex (absorption/excitation maximum),[1],316 nm

# — paper PMC4876444, “Two-Photon Enzymatic Probes Visualizing Sub-cellular/Deep-brain Caspase Activities in Neurodegenerative Models” (Scientific Reports, 2016)
